Test results as given in ChEMBL document CHEMBL4138123, “Design, synthesis and biological evaluation of novel pyrazolochalcones as potential modulators of PI3K/Akt/mTOR pathway and inducers of apoptosis in breast cancer cells” (Eur J Med Chem, 2017).

What was measured:
T47D = assay: Cytotoxicity against human T47D cells assessed as cell growth at 10 uM after 48 hrs by sulforhodamine B assay relative to control; type: functional; settings: read-out: Activity
RPMI-8226 = assay: Cytotoxicity against human RPMI8226 cells assessed as cell growth at 100 uM after 48 hrs by sulforhodamine B assay relative to control; type: functional; settings: RPMI-8226, 48 h, read-out: Activity
NCI/ADR-RES [1] = assay: Cytotoxicity against human NCI/ADR-RES cells assessed as cell growth at 100 uM after 48 hrs by sulforhodamine B assay relative to control; type: functional; settings: read-out: Activity
SR = assay: Cytotoxicity against human SR cells assessed as cell growth at 100 uM after 48 hrs by sulforhodamine B assay relative to control; type: functional; settings: read-out: Activity
A549 = assay: Cytotoxicity against human A549/ATCC cells assessed as growth inhibition after 48 hrs by sulforhodamine B assay; type: functional; settings: A549, 48 h
MCF7 [2] = assay: Cytotoxicity against human MCF7 cells assessed as growth inhibition after 48 hrs by MTT assay; type: functional, cell-based; settings: MCF7, 48 h
MDA-MB-468 [3] = assay: Cytotoxicity against human MDA-MB-468 cells assessed as cell growth at 10 uM after 48 hrs by sulforhodamine B assay relative to control; type: functional; settings: MDA-MB-468, 48 h, read-out: Activity
Malme-3M [4] = assay: Cytotoxicity against human MALME-3M cells assessed as cell growth at 100 uM after 48 hrs by sulforhodamine B assay relative to control; type: functional; settings: read-out: Activity
U-251 = assay: Cytotoxicity against human U251 cells assessed as cell growth at 0.01 uM after 48 hrs by sulforhodamine B assay relative to control; type: functional; settings: U-251, 48 h, read-out: Activity
RXF 393 [5] = assay: Cytotoxicity against human RXF393 cells assessed as cell growth at 100 uM after 48 hrs by sulforhodamine B assay relative to control; type: functional; settings: RXF 393, 48 h, read-out: Activity
DU-145 = assay: Cytotoxicity against human DU145 cells assessed as cell growth at 10 uM after 48 hrs by sulforhodamine B assay relative to control; type: functional; settings: DU-145, 48 h, read-out: Activity
LOX IMVI = assay: Cytotoxicity against human LOXIMVI cells assessed as cell growth at 10 uM after 48 hrs by sulforhodamine B assay relative to control; type: functional; settings: read-out: Activity
SN12C = assay: Cytotoxicity against human SN12C cells assessed as cell growth at 10 uM after 48 hrs by sulforhodamine B assay relative to control; type: functional; settings: read-out: Activity
HCT-116 [6] = assay: Cytotoxicity against human HCT116 cells assessed as cell growth at 1 uM after 48 hrs by sulforhodamine B assay relative to control; type: functional; settings: HCT-116, 48 h, read-out: Activity
SNB-19 [7] = assay: Cytotoxicity against human SNB19 cells assessed as cell growth at 100 uM after 48 hrs by sulforhodamine B assay relative to control; type: functional; settings: SNB-19, 48 h, read-out: Activity
K562 = assay: Cytotoxicity against human K562 cells assessed as cell growth at 1 uM after 48 hrs by sulforhodamine B assay relative to control; type: functional; settings: K562, 48 h, read-out: Activity
BT-549 = assay: Cytotoxicity against human BT549 cells assessed as cell growth at 1 uM after 48 hrs by sulforhodamine B assay relative to control; type: functional; settings: BT-549, 48 h, read-out: Activity
HCT-116 [8] = assay: Cytotoxicity against human HCT116 cells assessed as cell growth at 0.1 uM after 48 hrs by sulforhodamine B assay relative to control; type: functional; settings: HCT-116, 48 h, read-out: Activity
NCI/ADR-RES [9] = assay: Cytotoxicity against human NCI/ADR-RES cells assessed as cell growth at 0.1 uM after 48 hrs by sulforhodamine B assay relative to control; type: functional; settings: read-out: Activity
SK-OV-3 [10] = assay: Cytotoxicity against human SKOV3 cells assessed as growth inhibition after 48 hrs by sulforhodamine B assay; type: functional; settings: SK-OV-3, 48 h
NCI-H460 = assay: Cytotoxicity against human NCI-H460 cells assessed as cell growth at 100 uM after 48 hrs by sulforhodamine B assay relative to control; type: functional; settings: NCI-H460, 48 h, read-out: Activity
RXF 393 [11] = assay: Cytotoxicity against human RXF393 cells assessed as cell growth at 0.1 uM after 48 hrs by sulforhodamine B assay relative to control; type: functional; settings: RXF 393, 48 h, read-out: Activity
Malme-3M [12] = assay: Cytotoxicity against human MALME-3M cells assessed as cell growth at 0.01 uM after 48 hrs by sulforhodamine B assay relative to control; type: functional; settings: read-out: Activity
COLO 205 [13] = assay: Cytotoxicity against human COLO205 cells assessed as growth inhibition after 48 hrs by sulforhodamine B assay; type: functional; settings: COLO 205, 48 h
SK-OV-3 [14] = assay: Cytotoxicity against human SKOV3 cells assessed as cell growth at 1 uM after 48 hrs by sulforhodamine B assay relative to control; type: functional; settings: SK-OV-3, 48 h, read-out: Activity
MDA-MB-468 [15] = assay: Cytotoxicity against human MDA-MB-468 cells assessed as cell growth at 0.1 uM after 48 hrs by sulforhodamine B assay relative to control; type: functional; settings: MDA-MB-468, 48 h, read-out: Activity
SNB-19 [16] = assay: Cytotoxicity against human SNB19 cells assessed as cell growth at 1 uM after 48 hrs by sulforhodamine B assay relative to control; type: functional; settings: SNB-19, 48 h, read-out: Activity
KM12 [17] = assay: Cytotoxicity against human KM12 cells assessed as cell growth at 1 uM after 48 hrs by sulforhodamine B assay relative to control; type: functional; settings: KM12, 48 h, read-out: Activity
UO-31 = assay: Cytotoxicity against human UO31 cells assessed as cell growth at 10 uM after 48 hrs by sulforhodamine B assay relative to control; type: functional; settings: UO-31, 48 h, read-out: Activity
MDA-MB-435 = assay: Cytotoxicity against human MDA-MB-435 cells assessed as cell growth at 10 uM after 48 hrs by sulforhodamine B assay relative to control; type: functional; settings: MDA-MB-435, 48 h, read-out: Activity
MCF7 [18] = assay: Cytotoxicity against human MCF7 cells assessed as cell growth at 10 uM after 48 hrs by sulforhodamine B assay relative to control; type: functional; settings: MCF7, 48 h, read-out: Activity
UACC-257 = assay: Cytotoxicity against human UACC257 cells assessed as growth inhibition after 48 hrs by sulforhodamine B assay; type: functional; settings: UACC-257, 48 h
KM12 [19] = assay: Cytotoxicity against human KM12 cells assessed as cell growth at 100 uM after 48 hrs by sulforhodamine B assay relative to control; type: functional; settings: KM12, 48 h, read-out: Activity
COLO 205 [20] = assay: Cytotoxicity against human COLO205 cells assessed as cell growth at 10 uM after 48 hrs by sulforhodamine B assay relative to control; type: functional; settings: COLO 205, 48 h, read-out: Activity
NCI-H522 = assay: Cytotoxicity against human NCI-H522 cells assessed as growth inhibition after 48 hrs by sulforhodamine B assay; type: functional; settings: NCI-H522, 48 h
KM12 [21] = assay: Cytotoxicity against human KM12 cells assessed as cell growth at 0.01 uM after 48 hrs by sulforhodamine B assay relative to control; type: functional; settings: KM12, 48 h, read-out: Activity

COc1cc(-c2cc(/C=C/C(=O)c3ccc(N)cc3)[nH]n2)cc(OC)c1OC
growth at 10 µM (T47D): -38%
growth at 100 µM (RPMI-8226): -40%
growth at 100 µM (NCI/ADR-RES [1]): -3%
growth at 100 µM (SR): -13%
GI50 (A549): 2.08 µM
LC50 (concentration giving 50% net cell kill) (A549): 86.5 µM
TGI (A549): 7.02 µM
IC50 (MCF7 [2]): 1.6 µM
growth at 10 µM (MDA-MB-468 [3]): -58%
growth at 100 µM (Malme-3M [4]): -76%
growth at 0.01 µM (U-251): 98%
growth at 100 µM (RXF 393 [5]): -86%
growth at 10 µM (DU-145): -50%
growth at 10 µM (LOX IMVI): -78%
growth at 10 µM (SN12C): -45%
growth at 1 µM (HCT-116 [6]): 56%
growth at 100 µM (SNB-19 [7]): -94%
growth at 1 µM (K562): 43%
growth at 1 µM (BT-549): 73%
growth at 0.1 µM (HCT-116 [8]): 97%
growth at 0.1 µM (NCI/ADR-RES [9]): 110%
GI50 (SK-OV-3 [10]): 2.99 µM
LC50 (SK-OV-3 [10]): 28.9 µM
TGI (SK-OV-3 [10]): 8.32 µM
growth at 100 µM (NCI-H460): -59%
growth at 0.1 µM (RXF 393 [11]): 91%
growth at 0.01 µM (Malme-3M [12]): 98%
GI50 (COLO 205 [13]): 1.74 µM
LC50 (COLO 205 [13]): 6.42 µM
TGI (COLO 205 [13]): 3.34 µM
growth at 1 µM (SK-OV-3 [14]): 104%
growth at 0.1 µM (MDA-MB-468 [15]): 83%
growth at 1 µM (SNB-19 [16]): 79%
growth at 1 µM (KM12 [17]): 57%
growth at 10 µM (UO-31): -84%
growth at 10 µM (MDA-MB-435): -86%
growth at 10 µM (MCF7 [18]): -24%
GI50 (UACC-257): 1.87 µM
LC50 (UACC-257): 8.66 µM
TGI (UACC-257): 4.02 µM
growth at 100 µM (KM12 [19]): -79%
growth at 10 µM (COLO 205 [20]): -84%
GI50 (NCI-H522): 1.62 µM
LC50 (NCI-H522): 9.81 µM
TGI (NCI-H522): 3.99 µM
growth at 0.01 µM (KM12 [21]): 102%

COc1ccc(-c2cc(/C=C/C(=O)c3ccc4c(c3)OCO4)[nH]n2)cc1OC
GI50 (A549): 2.25 µM
IC50 (MCF7 [2]): 1.5 µM
GI50 (SK-OV-3 [10]): 3.13 µM
GI50 (COLO 205 [13]): 1.55 µM
GI50 (UACC-257): 2.16 µM
GI50 (NCI-H522): 1.69 µM

COc1cc(-c2cc(/C=C/C(=O)c3ccc(Cl)c(Cl)c3)[nH]n2)cc(OC)c1OC
growth at 10 µM (T47D): 9%
growth at 100 µM (RPMI-8226): -25%
growth at 100 µM (NCI/ADR-RES [1]): 5%
growth at 100 µM (SR): -51%
LC50 (concentration giving 50% net cell kill) (A549): > 100 µM
TGI (A549): > 100 µM
IC50 (MCF7 [2]): 3.2 µM
growth at 10 µM (MDA-MB-468 [3]): -13%
growth at 100 µM (Malme-3M [4]): 24%
growth at 0.01 µM (U-251): 97%
growth at 100 µM (RXF 393 [5]): -71%
growth at 10 µM (LOX IMVI): 16%
growth at 10 µM (SN12C): 56%
growth at 1 µM (HCT-116 [6]): 80%
growth at 100 µM (SNB-19 [7]): 12%
growth at 1 µM (K562): 101%
growth at 1 µM (BT-549): 92%
growth at 0.1 µM (HCT-116 [8]): 100%
growth at 0.1 µM (NCI/ADR-RES [9]): 96%
LC50 (SK-OV-3 [10]): 62.5 µM
TGI (SK-OV-3 [10]): 18.8 µM
growth at 100 µM (NCI-H460): -24%
growth at 0.1 µM (RXF 393 [11]): 96%
growth at 0.01 µM (Malme-3M [12]): 94%
LC50 (COLO 205 [13]): > 100 µM
TGI (COLO 205 [13]): 15.8 µM
growth at 1 µM (SK-OV-3 [14]): 89%
growth at 0.1 µM (MDA-MB-468 [15]): 91%
growth at 1 µM (SNB-19 [16]): 90%
growth at 1 µM (KM12 [17]): 85%
growth at 10 µM (UO-31): 40%
growth at 10 µM (MDA-MB-435): 37%
growth at 10 µM (MCF7 [18]): 15%
LC50 (UACC-257): > 100 µM
TGI (UACC-257): 74 µM
growth at 100 µM (KM12 [19]): 3%
growth at 10 µM (COLO 205 [20]): 10%
LC50 (NCI-H522): 6.97 µM
TGI (NCI-H522): 3.04 µM
growth at 0.01 µM (KM12 [21]): 96%
